ChEMBL document CHEMBL1201862, “PubChem BioAssay data set” (2004)
The source made the active and inactive calls.

Assays:
Format in all cases: functional
Phospholipase D2 = Phospholipase D2 (Homo sapiens, UniProt O14939); assay: PLD2 inhibitor potency in cells, dose response (AID 602147);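 note: cellular assay in HEK293 cells overexpressing GFP-tagged PLD2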
Phospholipase D1 = Phospholipase D1 (Homo sapiens, UniProt Q13393); assay: PLD1 inhibitor potency in cells, dose response (AID 602151);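 note: cellular PLD1 assay in Calu-1 cells stimulated with PMA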
Sequence of Phospholipase D1 (Q13393 whole entry, the tested form may be a part): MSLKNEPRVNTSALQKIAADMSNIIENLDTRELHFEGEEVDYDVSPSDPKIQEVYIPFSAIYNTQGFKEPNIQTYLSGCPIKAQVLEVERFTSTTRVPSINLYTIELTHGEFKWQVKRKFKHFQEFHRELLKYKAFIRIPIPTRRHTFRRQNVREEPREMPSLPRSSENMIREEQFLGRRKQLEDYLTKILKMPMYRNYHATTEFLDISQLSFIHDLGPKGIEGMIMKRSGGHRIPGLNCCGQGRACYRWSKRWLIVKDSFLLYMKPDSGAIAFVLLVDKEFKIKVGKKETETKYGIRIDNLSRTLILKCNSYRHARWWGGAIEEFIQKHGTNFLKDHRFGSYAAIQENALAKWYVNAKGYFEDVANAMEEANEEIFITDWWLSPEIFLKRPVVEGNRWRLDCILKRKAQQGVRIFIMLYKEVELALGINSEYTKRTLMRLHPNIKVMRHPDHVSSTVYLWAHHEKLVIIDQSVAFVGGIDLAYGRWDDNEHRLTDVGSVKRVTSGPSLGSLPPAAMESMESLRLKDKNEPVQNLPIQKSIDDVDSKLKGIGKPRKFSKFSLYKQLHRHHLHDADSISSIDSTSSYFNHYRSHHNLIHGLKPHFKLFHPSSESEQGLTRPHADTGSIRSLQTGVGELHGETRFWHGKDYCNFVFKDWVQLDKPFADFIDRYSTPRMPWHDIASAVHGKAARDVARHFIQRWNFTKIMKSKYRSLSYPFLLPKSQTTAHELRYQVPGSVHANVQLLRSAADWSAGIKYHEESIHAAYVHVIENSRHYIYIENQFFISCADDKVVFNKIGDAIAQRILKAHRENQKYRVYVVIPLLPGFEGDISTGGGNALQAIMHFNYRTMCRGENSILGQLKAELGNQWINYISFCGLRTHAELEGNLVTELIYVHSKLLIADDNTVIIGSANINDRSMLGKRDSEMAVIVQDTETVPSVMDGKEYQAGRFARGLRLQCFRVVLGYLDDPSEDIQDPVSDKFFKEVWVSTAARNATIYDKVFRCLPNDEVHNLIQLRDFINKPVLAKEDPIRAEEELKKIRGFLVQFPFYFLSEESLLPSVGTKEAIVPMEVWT

Hexokinase HKDC1 = biological target: T1, Hexokinase HKDC1 (Homo sapiens, UniProt Q2TB90); assay: SAR analysis of small molecule inhibitors of hexokinase domain containing I (HKDC1). [Related pubchem assays (depositor defined):AID493160, AID493190]
T1 sequence (Q2TB90 whole entry): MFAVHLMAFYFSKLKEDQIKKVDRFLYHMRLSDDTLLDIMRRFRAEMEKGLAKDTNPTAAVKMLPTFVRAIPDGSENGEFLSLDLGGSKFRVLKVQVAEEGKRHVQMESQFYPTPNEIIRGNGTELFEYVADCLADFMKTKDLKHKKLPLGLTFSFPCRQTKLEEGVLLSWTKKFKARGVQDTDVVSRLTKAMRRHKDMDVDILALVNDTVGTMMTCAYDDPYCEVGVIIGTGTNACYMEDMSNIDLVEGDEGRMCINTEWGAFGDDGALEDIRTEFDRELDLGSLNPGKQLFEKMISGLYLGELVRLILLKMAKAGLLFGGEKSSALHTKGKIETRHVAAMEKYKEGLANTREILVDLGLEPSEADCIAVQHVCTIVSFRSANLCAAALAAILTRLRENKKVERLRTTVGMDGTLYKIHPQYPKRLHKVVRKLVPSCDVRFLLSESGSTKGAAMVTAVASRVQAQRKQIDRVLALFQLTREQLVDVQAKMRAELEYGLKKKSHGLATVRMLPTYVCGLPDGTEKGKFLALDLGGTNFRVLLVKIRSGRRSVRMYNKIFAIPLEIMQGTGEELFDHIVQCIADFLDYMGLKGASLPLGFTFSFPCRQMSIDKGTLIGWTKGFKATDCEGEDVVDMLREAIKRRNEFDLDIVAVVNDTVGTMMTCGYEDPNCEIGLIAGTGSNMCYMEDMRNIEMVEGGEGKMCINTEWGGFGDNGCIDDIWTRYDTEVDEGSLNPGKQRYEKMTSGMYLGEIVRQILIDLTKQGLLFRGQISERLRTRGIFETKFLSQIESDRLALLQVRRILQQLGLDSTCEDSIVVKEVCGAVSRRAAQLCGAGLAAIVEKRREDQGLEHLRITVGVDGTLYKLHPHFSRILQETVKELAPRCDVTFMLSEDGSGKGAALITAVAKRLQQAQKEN

Hexokinase-1 = biological target: T2, Hexokinase-1 (Homo sapiens, UniProt P19367); assay: SAR analysis of small molecule inhibitors of hexokinase domain containing I (HKDC1) in the hexokinase 1 selectivity assay. [Related pubchem assays (depositor defined):AID493160, AID493190]
T2 sequence (P19367 whole entry): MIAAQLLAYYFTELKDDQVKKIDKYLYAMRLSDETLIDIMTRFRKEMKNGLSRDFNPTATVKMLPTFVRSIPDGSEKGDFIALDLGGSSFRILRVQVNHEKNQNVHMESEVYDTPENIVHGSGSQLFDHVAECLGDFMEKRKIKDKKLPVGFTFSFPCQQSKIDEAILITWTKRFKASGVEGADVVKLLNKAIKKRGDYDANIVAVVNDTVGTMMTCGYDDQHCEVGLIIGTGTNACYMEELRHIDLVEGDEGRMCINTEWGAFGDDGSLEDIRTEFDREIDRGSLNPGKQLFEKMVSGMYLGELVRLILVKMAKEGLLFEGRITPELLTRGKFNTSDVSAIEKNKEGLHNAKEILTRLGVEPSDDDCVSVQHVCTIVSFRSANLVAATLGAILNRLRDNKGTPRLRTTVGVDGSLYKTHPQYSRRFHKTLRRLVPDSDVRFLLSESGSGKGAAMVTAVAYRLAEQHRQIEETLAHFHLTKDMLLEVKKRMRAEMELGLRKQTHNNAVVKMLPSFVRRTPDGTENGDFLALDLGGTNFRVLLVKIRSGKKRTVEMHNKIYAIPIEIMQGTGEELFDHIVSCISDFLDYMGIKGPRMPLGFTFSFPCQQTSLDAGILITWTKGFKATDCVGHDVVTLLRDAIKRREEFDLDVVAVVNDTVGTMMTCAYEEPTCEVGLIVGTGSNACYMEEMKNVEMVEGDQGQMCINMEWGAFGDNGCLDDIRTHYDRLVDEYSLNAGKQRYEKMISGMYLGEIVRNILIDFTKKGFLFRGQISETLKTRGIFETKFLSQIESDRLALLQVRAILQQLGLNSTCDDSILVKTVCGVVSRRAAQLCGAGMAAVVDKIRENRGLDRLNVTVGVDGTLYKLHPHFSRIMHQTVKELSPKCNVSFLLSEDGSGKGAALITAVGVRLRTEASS

[1] = biological target: T3, Sentrin-specific protease 6 (Homo sapiens, UniProt Q9GZR1); assay: SAR Analysis of small molecule inhibitors of Sentrin-specific protease 6 (SENP6) using a Luminescent assay. [Related pubchem assays (depositor defined):AID2582, AID2599]
T3 sequence (Q9GZR1 whole entry): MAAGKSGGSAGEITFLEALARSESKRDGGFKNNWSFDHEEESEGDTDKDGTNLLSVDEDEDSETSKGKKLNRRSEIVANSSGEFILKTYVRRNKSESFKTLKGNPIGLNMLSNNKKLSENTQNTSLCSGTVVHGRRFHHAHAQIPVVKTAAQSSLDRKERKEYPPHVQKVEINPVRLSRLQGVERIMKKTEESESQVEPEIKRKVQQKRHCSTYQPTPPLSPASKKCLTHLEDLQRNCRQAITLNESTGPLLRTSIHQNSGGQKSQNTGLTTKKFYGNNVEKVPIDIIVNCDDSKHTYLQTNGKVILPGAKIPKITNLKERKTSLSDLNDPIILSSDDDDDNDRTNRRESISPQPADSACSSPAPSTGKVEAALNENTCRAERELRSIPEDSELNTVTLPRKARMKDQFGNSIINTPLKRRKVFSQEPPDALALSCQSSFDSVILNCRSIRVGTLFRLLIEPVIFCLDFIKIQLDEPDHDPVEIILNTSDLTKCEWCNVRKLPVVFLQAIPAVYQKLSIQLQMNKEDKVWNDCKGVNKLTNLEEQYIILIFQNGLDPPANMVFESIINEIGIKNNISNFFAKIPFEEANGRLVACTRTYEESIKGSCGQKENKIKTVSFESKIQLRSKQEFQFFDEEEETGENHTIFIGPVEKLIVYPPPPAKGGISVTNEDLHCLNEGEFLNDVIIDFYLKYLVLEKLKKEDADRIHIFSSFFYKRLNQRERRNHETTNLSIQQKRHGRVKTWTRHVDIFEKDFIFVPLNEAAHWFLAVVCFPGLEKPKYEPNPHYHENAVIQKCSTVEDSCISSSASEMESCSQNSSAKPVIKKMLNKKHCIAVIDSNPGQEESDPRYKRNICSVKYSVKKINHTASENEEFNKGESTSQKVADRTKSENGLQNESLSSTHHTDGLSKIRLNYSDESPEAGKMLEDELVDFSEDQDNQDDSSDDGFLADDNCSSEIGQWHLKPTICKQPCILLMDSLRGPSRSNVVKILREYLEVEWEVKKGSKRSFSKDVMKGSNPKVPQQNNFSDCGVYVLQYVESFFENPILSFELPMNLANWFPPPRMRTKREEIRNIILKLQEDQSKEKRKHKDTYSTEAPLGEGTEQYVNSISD

Caspase-3 = biological target: T4, Caspase-3 (Homo sapiens, UniProt P42574); assay: SAR Analysis of small molecule inhibitors of Sentrin-specific proteases (SENPs) using a Caspase-3 Selectivity assay. [Related pubchem assays (depositor defined):AID2540, AID2599, AID434973, AID489001]
T4 sequence (P42574 whole entry): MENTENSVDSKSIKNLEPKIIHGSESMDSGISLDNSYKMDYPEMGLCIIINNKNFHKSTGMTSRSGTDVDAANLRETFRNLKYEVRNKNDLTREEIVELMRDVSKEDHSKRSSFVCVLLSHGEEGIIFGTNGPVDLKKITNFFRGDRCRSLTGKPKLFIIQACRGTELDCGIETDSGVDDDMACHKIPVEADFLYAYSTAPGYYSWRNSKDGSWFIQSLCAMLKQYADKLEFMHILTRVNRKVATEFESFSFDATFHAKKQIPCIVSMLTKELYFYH

[2] = biological target: T5, Sentrin-specific protease 8 (Homo sapiens, UniProt Q96LD8); assay: SENP8 protease inhibitors, SAR follow-up, biochemical, luminescence (AID 504501)
T5 sequence (Q96LD8 whole entry): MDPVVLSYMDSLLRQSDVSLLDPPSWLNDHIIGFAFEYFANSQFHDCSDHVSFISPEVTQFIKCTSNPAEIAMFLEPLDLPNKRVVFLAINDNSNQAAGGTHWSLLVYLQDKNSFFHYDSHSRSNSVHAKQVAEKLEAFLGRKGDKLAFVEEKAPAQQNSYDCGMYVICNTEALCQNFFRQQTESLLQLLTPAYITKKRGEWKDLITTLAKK

[3] = biological target: T6, Sentrin-specific protease 7 (Homo sapiens, UniProt Q9BQF6); assay: SENP7 protease inhibitors, SAR follow-up, biochemical, luminescence (AID 504497)
T6 sequence (Q9BQF6 whole entry): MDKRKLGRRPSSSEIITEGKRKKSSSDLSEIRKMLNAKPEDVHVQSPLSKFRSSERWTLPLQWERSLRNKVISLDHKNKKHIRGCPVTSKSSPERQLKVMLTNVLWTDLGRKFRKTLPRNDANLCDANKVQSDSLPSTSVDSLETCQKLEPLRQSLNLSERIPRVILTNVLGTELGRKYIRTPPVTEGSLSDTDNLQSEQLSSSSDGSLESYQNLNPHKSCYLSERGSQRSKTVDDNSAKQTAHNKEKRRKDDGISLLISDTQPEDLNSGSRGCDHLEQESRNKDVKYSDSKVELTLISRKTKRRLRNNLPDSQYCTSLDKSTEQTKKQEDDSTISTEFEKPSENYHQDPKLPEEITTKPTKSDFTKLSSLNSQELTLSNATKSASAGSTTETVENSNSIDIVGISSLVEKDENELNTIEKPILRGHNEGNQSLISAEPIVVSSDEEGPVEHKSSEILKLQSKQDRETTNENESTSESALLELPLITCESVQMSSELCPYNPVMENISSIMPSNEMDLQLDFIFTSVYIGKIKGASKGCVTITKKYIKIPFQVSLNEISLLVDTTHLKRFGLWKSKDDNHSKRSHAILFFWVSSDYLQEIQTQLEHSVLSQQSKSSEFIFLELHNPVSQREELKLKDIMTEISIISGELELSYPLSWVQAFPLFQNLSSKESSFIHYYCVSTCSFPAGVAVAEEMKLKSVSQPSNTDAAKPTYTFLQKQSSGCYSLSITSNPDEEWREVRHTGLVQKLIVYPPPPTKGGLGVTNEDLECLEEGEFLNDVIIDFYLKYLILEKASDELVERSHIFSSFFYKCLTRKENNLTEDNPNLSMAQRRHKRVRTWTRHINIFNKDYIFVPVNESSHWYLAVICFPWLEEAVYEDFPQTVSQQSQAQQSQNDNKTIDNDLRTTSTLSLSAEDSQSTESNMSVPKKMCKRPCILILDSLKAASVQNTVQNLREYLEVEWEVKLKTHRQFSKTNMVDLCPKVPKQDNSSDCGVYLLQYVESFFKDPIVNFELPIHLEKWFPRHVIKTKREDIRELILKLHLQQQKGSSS

Sequence of Phospholipase D2 (O14939 whole entry): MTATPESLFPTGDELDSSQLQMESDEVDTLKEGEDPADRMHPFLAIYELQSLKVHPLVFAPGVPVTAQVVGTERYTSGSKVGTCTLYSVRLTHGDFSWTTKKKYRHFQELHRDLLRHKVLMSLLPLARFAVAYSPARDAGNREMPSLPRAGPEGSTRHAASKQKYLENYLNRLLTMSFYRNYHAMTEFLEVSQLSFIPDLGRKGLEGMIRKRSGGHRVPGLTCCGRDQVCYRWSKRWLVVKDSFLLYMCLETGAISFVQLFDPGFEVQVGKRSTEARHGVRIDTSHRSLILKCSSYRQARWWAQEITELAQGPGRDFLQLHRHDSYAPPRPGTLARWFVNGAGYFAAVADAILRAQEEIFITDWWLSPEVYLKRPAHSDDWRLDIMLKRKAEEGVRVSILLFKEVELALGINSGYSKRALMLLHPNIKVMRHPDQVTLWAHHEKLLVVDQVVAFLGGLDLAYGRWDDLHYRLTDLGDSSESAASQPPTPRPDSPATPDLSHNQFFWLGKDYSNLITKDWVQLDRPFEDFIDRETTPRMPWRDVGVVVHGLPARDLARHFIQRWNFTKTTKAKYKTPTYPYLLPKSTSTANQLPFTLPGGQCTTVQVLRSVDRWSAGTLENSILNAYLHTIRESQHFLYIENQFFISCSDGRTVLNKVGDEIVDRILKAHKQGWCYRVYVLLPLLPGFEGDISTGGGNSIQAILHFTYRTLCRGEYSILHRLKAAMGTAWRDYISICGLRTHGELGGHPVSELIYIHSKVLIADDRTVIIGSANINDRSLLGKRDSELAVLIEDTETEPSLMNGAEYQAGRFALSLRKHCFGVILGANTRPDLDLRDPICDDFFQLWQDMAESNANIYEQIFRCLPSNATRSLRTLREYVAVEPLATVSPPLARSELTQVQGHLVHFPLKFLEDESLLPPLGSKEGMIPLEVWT

For C[C@@H](CN1CCC2(CC1)C(=O)NCN2c1ccc(F)c(F)c1)NC(=O)c1ccc2ccccc2c1, the IC50 (Phospholipase D2) was 0.3 µM (active) and the IC50 (Phospholipase D1) was 0.1 µM (active).

Nc1n[nH]c(SCC(=O)Nc2cc(S(=O)(=O)N3CCOCC3)ccc2Cl)n1 was tested, and the IC50 (Hexokinase HKDC1) was > 80 µM (inactive) and the IC50 (Hexokinase-1) was > 80 µM (inactive).

In the case of Cc1ccc(NC(=O)c2ccc(OC3CSC3)cc2)cc1, the IC50 [1] is reported as > 99 µM (inactive), the IC50 (Caspase-3) is reported as > 99 µM (inactive) and the IC50 [2] is reported as > 99 µM (inactive). For the same compound, the IC50 [3] was > 99 µM (inactive).
